According to patent US6737383B1, “Herbicidal oxadiazolidines” (priority 1999, dated 2004):

Columns and labels:
[1] = test system: bedstraw; assay: Test B pre/postemergence bedstraw; type: in vivo, Galium aparine
Method in brief: (§1)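 Response is a visual 0-to-10 score relative to untreated plants, where 0 means no effect and 10 means complete control, taken twelve to sixteen days after application. Treatments went onto soil at planting and onto foliage of 1- to 4-leaf plants, using a surfactant-containing non-phytotoxic solvent.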

[2] = test system: blackgrass; assay: Test B pre/postemergence blackgrass; type: in vivo, Alopecurus myosuroides
Method in brief: as §1

[3] = test system: giant foxtail; assay: Test B pre/postemergence giant foxtail; type: in vivo, Setaria faberii
Method in brief: as §1

[4] = test system: morningglory; assay: Test B pre/postemergence morningglory; type: in vivo, Ipomoea hederacea
Method in brief: as §1

[5] = test system: pigweed; assay: Test B pre/postemergence pigweed; type: in vivo, Amaranthus retroflexus
Method in brief: as §1

[6] = test system: rape; assay: Test B pre/postemergence rape; type: in vivo, Brassica napus
Method in brief: as §1

[7] = test system: soybean; assay: Test B pre/postemergence soybean; type: in vivo, Glycine max
Method in brief: as §1

[8] = test system: sugar beet; assay: Test B pre/postemergence sugar beet; type: in vivo, Beta vulgaris
Method in brief: as §1

[9] = test system: velvetleaf; assay: Test B pre/postemergence velvetleaf; type: in vivo, Abutilon theophrasti
Method in brief: as §1

[10] = test system: wheat; assay: Test B pre/postemergence wheat; type: in vivo, Triticum aestivum
Method in brief: as §1

[11] = test system: wild oat; assay: Test B pre/postemergence wild oat; type: in vivo, Avena fatua
Method in brief: as §1

[12] = test system: purple nutsedge; assay: Test B pre/postemergence purple nutsedge; type: in vivo, Cyperus rotundus
Method in brief: as §1

[13] = test system: rice; assay: Test B flood test rice; type: in vivo, Oryza sativa
Method in brief: (§2)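 Flood test on plants grown to the 2-leaf stage; treated plants kept in greenhouse twelve to sixteen days, then visually rated against controls on a 0 (no effect) to 10 (complete control) scale.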

[14] = test system: smallflower flatsedge; assay: Test B flood test smallflower flatsedge; type: in vivo, Cyperus difformis
Method in brief: as §2

[15] = test system: duck salad; assay: Test B flood test duck salad; type: in vivo, Heteranthera limosa
Method in brief: as §2

[16] = test system: bamyardgrass; assay: Test B flood test barnyardgrass; type: in vivo, Echinochloa crus-galli
Method in brief: as §2

[17] = Preemergence, Rate 62 g/ha, scale of 0 to 10 where 0 is no effect and 10 is complete control
[18] = Preemergence, Rate 500 g/ha, scale of 0 to 10 where 0 is no effect and 10 is complete control
[19] = Rate 62 g/ha, Postemergence, scale 0 to 10 (0 no effect, 10 complete control)
[20] = Rate 125 g/ha, Postemergence, scale of 0 to 10 where 0 is no effect and 10 is complete control
[21] = Rate 250 g/ha, Postemergence, scale of 0 to 10 where 0 is no effect and 10 is complete control
[22] = Preemergence, Rate 250 g/ha, scale of 0 to 10 where 0 is no effect and 10 is complete control
[23] = Rate 62 g/ha, headed Pre-emergence (flood test species), scale 0 to 10 (0 no effect, 10 complete control)
[24] = Rate 125 g/ha, Pre-emergence, flood test species, scale 0 to 10 where 0 is no effect and 10 is complete control
[25] = Rate 250 g/ha, Pre-emergence, flood-test species, scale 0 to 10, 0 is no effect, 10 is complete control
[26] = Rate 500 g/ha, Pre-emergence, flood test species, scale 0 to 10 (0 no effect, 10 complete control)

CC(C)N(C(=O)n1oc(=O)n(Cc2nnsc2Cl)c1=O)c1ccccc1 [Compound 321]
Bedstraw plant response rating [1, 17]: 0
Bedstraw plant response rating [1, 18]: 3
Bedstraw plant response rating [1, 19]: 0
Bedstraw plant response rating [1, 20]: 4
Plant response rating, Bedstraw [1, 21]: 8
Blackgrass plant response rating [2, 17]: 3
Blackgrass plant response rating (0 to 10 scale) ([2]; Preemergence, Rate 125 g/ha): 6
Blackgrass plant response rating [2, 22]: 6
Blackgrass plant response rating [2, 18]: 7
Blackgrass plant response rating [2, 19]: 0
Blackgrass plant response rating [2, 20]: 0
Plant response rating, Blackgrass [2, 21]: 0
Blackgrass plant response rating ([2]; Rate 500 g/ha, Postemergence, scale 0 to 10, 0 no effect, 10 complete control): 4
Giant foxtail plant response rating [3, 17]: 4
Giant foxtail plant response rating (0 to 10 scale) ([3]; Preemergence, Rate 125 g/ha): 8
Giant foxtail plant response rating [3, 22]: 9
Giant foxtail plant response rating [3, 18]: 10
Giant foxtail plant response rating [3, 19]: 0
Giant foxtail plant response rating [3, 20]: 0
Plant response rating, Giant foxtail [3, 21]: 1
Morningglory plant response rating [4, 17]: 0
Morningglory plant response rating (0 to 10 scale) ([4]; Preemergence, Rate 125 g/ha): 0
Morningglory plant response rating [4, 22]: 0
Morningglory plant response rating [4, 18]: 0
Morningglory plant response rating [4, 19]: 2
Morningglory plant response rating [4, 20]: 7
Plant response rating, Morningglory [4, 21]: 8
Redroot pigweed plant response rating [5, 17]: 0
Redroot pigweed plant response rating (0 to 10 scale) ([5]; Preemergence, Rate 125 g/ha): 0
Redroot pigweed plant response rating [5, 22]: 0
Redroot pigweed plant response rating [5, 18]: 0
Redroot pigweed plant response rating [5, 19]: 2
Redroot pigweed plant response rating [5, 20]: 3
Plant response rating, Redroot pigweed [5, 21]: 4
Rape plant response rating [6, 17]: 0
Rape plant response rating (0 to 10 scale) ([6]; Preemergence, Rate 125 g/ha): 0
Rape plant response rating [6, 22]: 0
Rape plant response rating [6, 18]: 0
Rape plant response rating [6, 19]: 0
Rape plant response rating [6, 20]: 0
Plant response rating, Rape [6, 21]: 0
Soybean plant response rating [7, 17]: 0
Soybean plant response rating (0 to 10 scale) ([7]; Preemergence, Rate 125 g/ha): 0
Soybean plant response rating [7, 22]: 0
Soybean plant response rating [7, 18]: 0
Soybean plant response rating [7, 19]: 2
Plant response rating, Soybean [7, 21]: 3
Sugarbeets plant response rating [8, 17]: 0
Sugarbeets plant response rating (0 to 10 scale) ([8]; Preemergence, Rate 125 g/ha): 0
Sugarbeets plant response rating [8, 22]: 0
Sugarbeets plant response rating [8, 18]: 0
Sugarbeets plant response rating [8, 19]: 0
Sugarbeets plant response rating [8, 20]: 0
Plant response rating, Sugarbeets [8, 21]: 5
Velvetleaf plant response rating [9, 17]: 0
Velvetleaf plant response rating (0 to 10 scale) ([9]; Preemergence, Rate 125 g/ha): 0
Velvetleaf plant response rating [9, 22]: 0
Velvetleaf plant response rating [9, 18]: 0
Velvetleaf plant response rating [9, 19]: 0
Velvetleaf plant response rating [9, 20]: 0
Plant response rating, Velvetleaf [9, 21]: 0
Wheat plant response rating [10, 17]: 0
Wheat plant response rating (0 to 10 scale) ([10]; Preemergence, Rate 125 g/ha): 0
Wheat plant response rating [10, 22]: 0
Wheat plant response rating [10, 18]: 0
Wheat plant response rating [10, 19]: 0
Wheat plant response rating [10, 20]: 0
Plant response rating, Wheat [10, 21]: 0
Wild oats plant response rating [11, 17]: 0
Wild oats plant response rating (0 to 10 scale) ([11]; Preemergence, Rate 125 g/ha): 0
Wild oats plant response rating [11, 22]: 2
Wild oats plant response rating [11, 18]: 5
Wild oats plant response rating [11, 19]: 0
Wild oats plant response rating [11, 20]: 0
Plant response rating, Wild oats [11, 21]: 0
Nutsedge plant response rating [12, 17]: 0
Nutsedge plant response rating (0 to 10 scale) ([12]; Preemergence, Rate 125 g/ha): 0
Nutsedge plant response rating [12, 18]: 0
Nutsedge plant response rating [12, 19]: 0
Nutsedge plant response rating [12, 20]: 0
Plant response rating, Nutsedge [12, 21]: 0
Rice plant response rating [13, 23]: 0
Rice plant response rating [13, 24]: 0
Rice plant response rating [13, 25]: 0
Rice plant response rating [13, 26]: 0
S. Flatsedge plant response rating [14, 23]: 0
S. Flatsedge plant response rating [14, 24]: 0
S. Flatsedge plant response rating [14, 25]: 0
S. Flatsedge plant response rating [14, 26]: 0
Ducksalad plant response rating [15, 23]: 0
Ducksalad plant response rating [15, 24]: 0
Ducksalad plant response rating [15, 25]: 0
Ducksalad plant response rating [15, 26]: 0
Barnyardgrass plant response rating [16, 23]: 0
Barnyardgrass plant response rating [16, 24]: 0
Barnyardgrass plant response rating [16, 25]: 0
Barnyardgrass plant response rating [16, 26]: 0
